Data taken from patent US7326708B2, “Phosphoric acid salt of a dipeptidyl peptidase-IV inhibitor” (Merck & Co., Inc., priority 2003, dated 2008).

Experiments:
solubility in water = format: physicochemical
[1] = physical (crystal form) stability of the solid; format: physicochemical; conditions: for stability of the crystal form: ambient condition

SMILES	solubility in water (in words) (solubility in water)	stability of the crystal form [1]	crystal form change on heating ([1]; heated to above 40° C. under very dry nitrogen flow)	solubility (solubility in water)
NC(CC(=O)N1CCn2c(nnc2C(F)(F)F)C1)Cc1cc(F)c(F)cc1F (stereo not drawn) [4-oxo-4-[3-(trifluoromethyl)-5,6-dihydro[1 ,2,4]triazolo[4,3-a]pyrazin-7(8H)-yl]-1-(2,4,5-trifluorophenyl) butan-2-amine]	high solubility in water			
N[C@@H](CC(=O)N1CCn2c(nnc2C(F)(F)F)C1)Cc1cc(F)c(F)cc1F [(2R)-4-oxo-4-[3-(trifluoromethyl)-5,6-dihydro[1,2,4]triazolo[4,3-a]pyrazin-7(8H)-yl]-1-(2,4,5-trifluorophenyl)butan-2-amine dihydrogenphosphate monohydrate]	high solubility in water	stable under ambient condition	convert to dehydrated monohydrate	~72 mg/mL
N[C@@H](CC(=O)N1CCn2c(nnc2C(F)(F)F)C1)Cc1cc(F)c(F)cc1F.O=P(O)(O)O [Dehydrated monohydrate]		converted back to monohydrate		
